No end group written: not given here.
Experiments:
[1] = Shock sensitization of startle after ICV TUF1 peptide infusion; type: in vivo, rat; settings: adult male rats, 1.0 μg or 10 μg ICV
Protocol: a) Intra-cerebroventricular (ICV) Cannulation Male Sprague-Dawley rats weighing 250-400 grams were anesthetized with ketamine (100 mg/kg) and xylazine (7 mg/kg) and placed in a stereotaxic device (David Kopf Instruments Corp., Tunjunga, Calif.) using atraumatic ear bars. An incision of the skin overlying the skull was made and anchor screws were inserted into the skull. Burr holes were drilled to allow the guide cannula to pass into the brain. The guide cannula (22-gauge, C313G; Plastics One, Roanoke, Va.) was placed at 0 mm posterior, 1.2 mm lateral and 3.5 mm ventral to bregma. The cannula was affixed using epoxy glue (Loctite 444; McMaster-Carr, Chicago, Ill.) followed by dental acrylic (Hygienic perm reline & repair resin, Type II, Class I; Henry Schein, Inc., Melville, N.Y.). The cannula was sealed and kept open by insertion of a ‘dummy’ cannula. […]
For fear potentiated startle, shock sensitization, and prepulse inhibition testing, animals were trained and tested in four identical 7.5 cm×9 cm×17 cm stabilimeter devices. […] Shock intensity was measured with a 1-kΩ resistor across a differential channel of an oscilloscope in series with a 100-kΩ resistor connected between two floor bars in each cage. Current was defined as the RMS voltage across the resistor and calculated in mA as 0.707×0.5 ×peak-to-peak voltage. […]

[2] = test system: primary culture hypothalamic neurons; assay: Activated-Caspase 3 expression in serum-deprived primary cultured hypothalamic neurons; type: cell-based, mouse; settings: 48-hour serum deprivation; 50 nM TUF1[43-54] or 500 ng/ml anti-TUF1[43-54] IgG; preliminary qualitative analysis
Protocol: Gestational day 16.5 mouse embryos were collected from deeply anesthetized pregnant dam (i.p. injection of 10 mg/Kg Beuthanasia). Embryos were placed in HAM F12+10% Fetal Calf Serum (FCS)+1 mg/ml glucose. Whole brains were dissected and placed in a dish containing Phosphate Buffer Saline (PBS)+1 mg/ml glucose+10 mM HEPES. Hypothalami were dissected from embryonic brains and placed into a conical tube containing 2 ml HAM F12+10 mg/ml Glucose+10 mM HEPES. Cells were dissociated by pipetting and then centrifuged at 200×g for 5 minutes. Cells were suspended in culture medium (HAM F12+10% FCS+10 mg/ml glucose+10 mM HEPES+[…]) and plated at 200,000 cells/25 mm flask. Plated cells were incubated for four days in humidified incubator maintained at 37° C. and 5% CO2 (NuAire NU-8600, NuAire, Inc., Plymouth, Minn.).
To gain insight into the survival effect of TUF1[43-54] polypeptide, serum deprivation was used as a stressor. […] Cells were assessed for activated-Caspase 3 expression by immunocytochemistry after 48-hour incubation.
Cultured cells were rinsed with PBS (2×), fixed with 4% Paraformaldehyde (5 minutes) and permeabilized with PBS+0.1% Tween-20 (PBST). […] Excess antibody was removed by PBST and labeled cells were detected using IMMPACT DAB chromogen (Vector Laboratories, Inc., Burlingame, Calif.) per manufacturer's recommendation.

AYKSYVRALPLL [TUF1[43-54]]
shock sensitization [1]: No effect | cell death (activated-Caspase 3) following serum-deprivation [2]: fewer cell death

From US20120269815A1, “NEUROTROPHINS AND USES THEREOF” (Regents of the University of Minnesota, priority 2008, published 2012)
